{
  "source": "patent US20120009280A1",
  "about": "“METHOD OF REDUCING THE RATE OF DEGRADATION OF A BIOLOGICAL MATERIAL” (Bio-Energy Ingredients Limited, priority 2009, published 2012)",
  "type_in_all_cases": "cell-based",
  "key": {"[1]": {"tested_on": "Escherichia coli NCIMB 8545", "assay": "Antimicrobial efficacy test of saturated aqueous solutions", "details": "for Corrected count cfu/mL: saturated aqueous solution, inoculum (t = 0) 6.95 × 10^8, replicates A, B; for colonies on plates: saturated solution", "protocol": "Escherichia coli NCIMB 8545 was subcultured onto TSA and the plates incubated at 30-35° C. for approximately 24 hours. After this time, surface growth was harvested and directly suspended into sterile distilled water and standardised to give 30-45% light transmission at 520 nm on a Jenway 6105 Spectrophotometer—an approximate yield of 2 (10^8) cfu/ml. A 0.1 ml aliquot of this suspension was inoculated into 9.9 ml of CaOH solution. This was performed in duplicate. At the same time, 1 ml of bacterial suspension was removed from the original stock suspension and placed into 9 ml PBS to perform the initial (Time 0) count. The inoculated calcium hydroxide suspensions were then shaken for one hour at room temperature. After this time 1 ml samples of the bacterial suspension were removed from the test containers and placed into 9 ml PBS. For each diluted sample, further serial ten-fold dilutions in PBS down to 10^−5 were made and then used to prepare duplicate 1 ml pour plate counts in TSA. Pour plates were also prepared from the neat (undiluted) sample. The plates were incubated at 30-35° C. for approximately 24 hours. Following incubation, the plates were counted. Optimally, plates with counts of 30-300 colonies were used to calculate the counts at each sampling time.\nEscherichia coli NCIMB 8545 was subcultured onto TSA and the plates incubated at 30-35° C. for approximately 24 hours. After this time, surface growth was harvested and directly suspended into sterile distilled water and standardised to give 30-45% light transmission at 520 nm on a Jenway 6105 Spectrophotometer—an approximate yield of 2×10^8 cfu/ml. […] […]. At the same time, 1 ml of bacterial suspension was removed from the original stock suspension and placed into 9 ml PBS to perform the initial (Time 0) count. The inoculated suspensions were then shaken for one hour at room temperature. After both 10 minutes and one hour, 1 ml samples of the bacterial suspension were removed from the test containers and placed into 9 ml PBS. For each diluted sample, further serial ten-fold dilutions in PBS down to 10^−6 were made and then used to prepare duplicate 1 ml pour plate counts in TSA. Pour plates were also prepared from the neat (undiluted) sample. The plates were incubated at 30-35° C. for approximately 24 hours.\n(§1) Following incubation, the plates were counted. Optimally, plates with counts of 30-300 colonies were used to calculate the counts at each sampling time.\n(§2) Escherichia coli NCIMB 8545 and Salmonella abony NCTC 6017 were subcultured onto Tryptone Soya Agar (TSA) and the plates incubated at 30-35° C. for approximately 24 hours. Clostridium difficile ATCC 43255 was subcultured onto Fastidious Anaerobe Agar (FAA)+5% defibrinated horse blood and the plates incubated at 30-35° C. for approximately 48 hours. After this time, surface growth was harvested and directly suspended into sterile distilled water and standardised to give 30-45% light transmission at 520 nm on a Jenway 6105 Spectrophotometer—an approximate yield of 2×10^8 cfu/ml. […] […]. At the same time, 1 ml of bacterial suspension was removed from the original stock suspensions and placed into 9 ml PBS to perform the initial (Time 0) count. The inoculated suspensions were then shaken for ten minutes at room temperature. After 1 and 10 minutes, 1 ml samples of the bacterial suspensions were removed from the test containers and placed into 9 ml PBS. For each diluted sample, further serial ten-fold dilutions in PBS down to 10^−5 were made and then used to prepare duplicate 1 ml pour plate counts in TSA. Pour plates were also prepared from the neat (undiluted) sample. For Clostridium difficile, 0.1 ml spread plates were prepared on FAA instead of 1 ml pour plates due to the presence of blood in the agar. The plates were incubated at 30-35° C. for approximately 24 hours (48 hours for Clostridium difficile)."}, "[2]": {"tested_on": "Clostridium difficile ATCC 43255", "assay": "Antimicrobial efficacy test of saturated aqueous solutions", "details": "for Corrected count cfu/mL: saturated aqueous solution, inoculum (t = 0) 8.20 × 10^7, replicates A, B; for reduction: saturated solution 8.35 g/L (0.037 M)", "protocol": "as §2, §1"}, "[3]": {"tested_on": "Salmonella abony NCTC 6017", "assay": "Antimicrobial efficacy test of saturated aqueous solutions", "protocol": "At the same time, 1 ml of bacterial suspension was removed from the original stock suspensions and placed into 9 ml PBS to perform the initial (Time 0) count. The inoculated suspensions were then shaken for ten minutes at room temperature. After 1 and 10 minutes, 1 ml samples of the bacterial suspensions were removed from the test containers and placed into 9 ml PBS. For each diluted sample, further serial ten-fold dilutions in PBS down to 10^−5 were made and then used to prepare duplicate 1 ml pour plate counts in TSA. Pour plates were also prepared from the neat (undiluted) sample. For Clostridium difficile, 0.1 ml spread plates were prepared on FAA instead of 1 ml pour plates due to the presence of blood in the agar. The plates were incubated at 30-35° C. for approximately 24 hours (48 hours for Clostridium difficile).\nas §1"}, "Pseudomonas aeruginosa": {"tested_on": "Pseudomonas aeruginosa", "assay": "Spiking test of agar plates with Pseudomonas aeruginosa (kill versus inhibition)", "details": "treated sample with 5% (w/w) calcium oxide, Day 9, all sample dilutions", "protocol": "When performing total viable counts (TVCs), the agar plates (when they were molten and containing 1 ml of the test sample dilution) were spiked with bacterial organisms (E. Coli and P. aeruginosa) of a known concentration. If the organisms grew, this would indicate that the conditions in the agar plate had not inhibited them. A control with no sample was run at the same time. […]\nThe plates were incubated at 30-35° C. for approximately 24 hours after which time the bacterial colonies were counted."}, "total micro-organism": {"tested_on": "total micro-organism", "assay": "Total microbial (plate) count of spent brewer's / wet distiller's grains stored at ambient temperature", "details": "dose 10% w/w; distiller's grains not de-watered, Examples 16-18"}, "[4]": {"details": "10 minutes incubation, Example 13"}, "[5]": {"details": "10 minutes incubation, time 0 count 4.00×10^6 cfu/ml, Example 12"}, "[6]": {"details": "one hour incubation, time 0 count 4.00×10^6 cfu/ml, Example 12"}},
  "note": "Values joined by “and” are separate entries in the source; they are usually repeats but may differ in a detail not shown here. Equal entries are not always repeated.",
  "data": [
    {"smiles": "[Ca+2].[O-]CC(O)CO.[O-]CC(O)CO", "note": "[calcium diglyceroxide]", "values": [
      {"measurement": "Corrected count cfu/mL", "setting": "[1]; one minute treatment", "result": "0 cfu/mL and 1 cfu/mL"},
      {"measurement": "reduction", "setting": "[1]; saturated solution 8.35 g/L (0.037 M), one minute treatment", "result": "≥ 4", "unit": "log10"},
      {"measurement": "colonies on plates", "setting": "[1]; [4]", "result": "No colonies"},
      {"measurement": "colonies on plates", "setting": "[1]; [5]", "result": "No colonies"},
      {"measurement": "colonies on plates", "setting": "[1]; [6]", "result": "No colonies"},
      {"measurement": "Corrected count cfu/mL", "setting": "[2]; one minute treatment", "result": "1.30 × 10^3 cfu/mL and 7.00 × 10^2 cfu/mL"},
      {"measurement": "Corrected count cfu/mL", "setting": "[2]; ten minute treatment", "result": "85 cfu/mL and 50 cfu/mL"},
      {"measurement": "reduction", "setting": "[2]; one minute treatment", "result": "≥ 4", "unit": "log10"},
      {"measurement": "reduction", "setting": "[2]; ten minute treatment", "result": 6, "unit": "log10"}
    ]},
    {"smiles": "[Ca+2].[OH-].[OH-]", "note": "[calcium hydroxide]", "values": [
      {"measurement": "Corrected count cfu/mL", "setting": "[1]; one minute treatment", "result": "1.35 × 10^6 cfu/mL and 1.23 × 10^5 cfu/mL"},
      {"measurement": "colonies on plates", "setting": "[1]; [4]", "result": "No colonies"},
      {"measurement": "colonies on plates", "setting": "[1]; [5]", "result": "No colonies"},
      {"measurement": "colonies on plates", "setting": "[1]; [6]", "result": "No colonies"},
      {"measurement": "Corrected count cfu/mL", "setting": "[3]; saturated aqueous solution, one minute treatment, inoculum (t = 0) 7.00 × 10^8, replicates A, B", "result": "59 cfu/mL and 11 cfu/mL"},
      {"measurement": "colonies on plates", "setting": "[3]; saturated solution, 10 minutes incubation", "result": "No colonies"},
      {"measurement": "Corrected count cfu/mL", "setting": "[2]; one minute treatment", "result": "8.50 × 10^2 cfu/mL and 9.50 × 10^2 cfu/mL"},
      {"measurement": "Corrected count cfu/mL", "setting": "[2]; ten minute treatment", "result": "1.10 × 10^2 cfu/mL and 1.20 × 10^2 cfu/mL"}
    ]},
    {"smiles": "[O]=[Ca]", "note": "[calcium oxide]", "values": [
      {"measurement": "inhibitory effect on test organism in spiking test", "setting": "Pseudomonas aeruginosa", "result": "did not demonstrate an inhibitory effect"},
      {"measurement": "preservation time with total microbial counts <100 cfu/g", "setting": "total micro-organism", "result": "≧9 weeks"},
      {"measurement": "preservation time with total microbial counts <1000 cfu/g", "setting": "total micro-organism", "result": "≧9 weeks"}
    ]}
  ]
}
